Experimental data taken from ChEMBL document CHEMBL5038652, “Structural Rigidification of N-Aryl-pyrroles into Indoles Active against Intracellular and Drug-Resistant Mycobacteria” (ACS Med Chem Lett, 2022).
Converted amounts (≈) assume the structure as drawn.

What was measured:
[1] = test system: Mycobacterium tuberculosis; assay: Antimycobacterial activity against Mycobacterium tuberculosis H37Rv assessed as reduction in bacterial growth incubated for 7 days by resazurin dye based assay; assay type: functional; conditions: 168 h, time 7 day
[2] = Cytotoxicity against mouse J774.A1 cells assessed as reduction in cell viability after 24 hrs by resazurin dye based assay; assay type: toxicity
[3] = Selectivity index, ratio of IC50 for mouse J774.A1 cells to MIC for Mycobacterium tuberculosis H37Rv; assay type: toxicity; conditions: read-out: Selectivity Index
[4] = test system: Mycobacterium tuberculosis; assay: Antimycobacterial activity against Mycobacterium tuberculosis H37Rv clinical isolates 3 assessed as reduction in bacterial growth incubated for 7 days by resazurin dye based assay; assay type: functional; conditions: 168 h, time 7 day
[5] = test system: Mycobacterium tuberculosis; assay: Antimycobacterial activity against Mycobacterium tuberculosis H37Rv clinical isolates 1 assessed as reduction in bacterial growth incubated for 7 days by resazurin dye based assay; assay type: functional; conditions: 168 h, time 7 day
[6] = test system: Mycobacterium tuberculosis; assay: Antimycobacterial activity against Mycobacterium tuberculosis H37Rv clinical isolates 2 assessed as reduction in bacterial growth incubated for 7 days by resazurin dye based assay; assay type: functional; conditions: 168 h, time 7 day
[7] = test system: Mycobacterium tuberculosis; assay: Antimycobacterial activity against Mycobacterium tuberculosis H37Rv clinical isolates 4 assessed as reduction in bacterial growth incubated for 7 days by resazurin dye based assay; assay type: functional; conditions: 168 h, time 7 day
[8] = test system: Mycobacterium tuberculosis; assay: Antimycobacterial activity against Mycobacterium tuberculosis H37Rv infected in mouse J774.A1 cells assessed as log reduction of bacterial growth at 1X MIC measured after 3 days by visual colony counting analysis; assay type: functional; conditions: time 3 day

Row | SMILES | MIC [1] [µg/mL] | other results
1 | c1ccc2c(CNC3CCCCCC3)c[nH]c2c1 | > 25 | –
2 | Cc1cc(CNC2CCCCC2)c(C)n1-c1ccc(Cl)cc1 | 0.2 (≈ 0.631 µM) | –
3 | Cc1cc(CNCC2CCCCC2)c(C)n1-c1ccc(Cl)cc1 | 0.3 (≈ 0.907 µM) | –
4 | Cc1ccc2[nH]cc(CNC3CCCCC3)c2c1 | > 25 | –
5 | CC(C)=CCC/C=C(\C)Cn1cc(CNC2CCCCCC2)c2ccc(Cl)cc21 | 2.75 (≈ 6.66 µM) | –
6 | Clc1ccc2[nH]cc(CNC3CCCCC3)c2c1 | 16.3 (≈ 62.1 µM) | –
7 | Clc1ccc2c(CNCc3ccccc3)c[nH]c2c1 | 22.8 (≈ 84.3 µM) | –
8 | Clc1ccc2c(CNCc3ccccc3)cn(C3CCCCCCC3)c2c1 | 19.7 (≈ 51.8 µM) | –
9 | Clc1ccc2c(CNC3CCCCCC3)c[nH]c2c1 | 17.1 (≈ 61.9 µM) | –
10 | Cn1cc(CNC2CCCCC2)c2ccc(Cl)cc21 | > 25 | –
11 | Clc1ccc2c(CNC3CCCCC3)c[nH]c2c1 | > 25 | –
12 | CC(C)n1cc(CNCC2CCCCC2)c2ccc(Cl)cc21 | 6.09 (≈ 19.1 µM) | IC50 at 24 h [2]: 14.6 µg/mL (≈ 45.7 µM); selectivity ratio [3]: 2.39
13 | CC(C)n1cc(CNC2CCCCCCC2)c2ccc(Cl)cc21 | 14 (≈ 42.1 µM) | –
14 | Clc1ccc2c(CNCC3CCCCC3)c[nH]c2c1 | 24.2 (≈ 87.4 µM) | –
15 | c1ccc2c(CNC3CCCCCCC3)c[nH]c2c1 | > 25 | –
16 | Cn1cc(CNCC2CCCCC2)c2ccc(Cl)cc21 | 19.1 (≈ 65.6 µM) | –
17 | CC(C)n1cc(CNC2CCCCC2)c2ccc(Cl)cc21 | 23.9 (≈ 78.3 µM) | –
18 | CC(C)n1cc(CNC2CCCCCC2)c2ccc(Cl)cc21 | 16.3 (≈ 51.2 µM) | –
19 | Cn1cc(CNCc2ccccc2)c2ccc(Cl)cc21 | > 25 | –
20 | Clc1ccc2c(CNCC3CCCCC3)cn(C3CCCCCCC3)c2c1 | 1.56 (≈ 4.03 µM) | –
21 | Cc1ccc2[nH]cc(CNC3CCCCCC3)c2c1 | 24.7 (≈ 96.4 µM) | –
22 | Clc1ccc2c(CNC3C4CC5CC(C4)CC3C5)c[nH]c2c1 (stereo not given) | 6.07 (≈ 19.3 µM) | IC50 at 24 h [2]: 7.51 µg/mL (≈ 23.9 µM); selectivity ratio [3]: 1.24
23 | Cn1cc(CNC2C3CC4CC(C3)CC2C4)c2ccc(Cl)cc21 (stereo not given) | 10.9 (≈ 33.2 µM) | IC50 at 24 h [2]: 16.2 µg/mL (≈ 49.2 µM); selectivity ratio [3]: 1.48
24 | c1ccc2c(CNCC3CCCCC3)c[nH]c2c1 | > 25 | –
25 | Clc1ccc2c(CNC3CCCCCCC3)c[nH]c2c1 | > 25 | –
26 | Cn1cc(CNC2CCCCCCC2)c2ccc(Cl)cc21 | 23.2 (≈ 76.3 µM) | –
27 | NCC[C@H](O)C(=O)N[C@@H]1C[C@H](N)[C@@H](O[C@H]2O[C@H](CN)[C@@H](O)[C@H](O)[C@H]2O)[C@H](O)[C@H]1O[C@H]1O[C@H](CO)[C@@H](O)[C@H](N)[C@H]1O [AMIKACIN] | – | MIC [4]: > 25 µg/mL; MIC [5]: 0.32 µg/mL (≈ 0.546 µM); MIC [6]: 23.1 µg/mL (≈ 39.5 µM); MIC [7]: 0.14 µg/mL (≈ 0.239 µM)
28 | NNC(=O)c1ccncc1 [ISONIAZID] | – | MIC [4]: > 25 µg/mL; MIC [5]: > 25 µg/mL; MIC [6]: > 25 µg/mL; MIC [7]: 0.25 µg/mL (≈ 1.82 µM)
29 | COc1c(N2C[C@@H]3CCCN[C@@H]3C2)c(F)cc2c(=O)c(C(=O)O)cn(C3CC3)c12 [MOXIFLOXACIN] | – | Activity [8]: 0.11 log10CFU
30 | CO[C@H]1/C=C/O[C@@]2(C)Oc3c(C)c(O)c4c(O)c(c(/C=N/N5CCN(C)CC5)c(O)c4c3C2=O)NC(=O)/C(C)=C\C=C\[C@H](C)[C@H](O)[C@@H](C)[C@@H](O)[C@@H](C)[C@H](OC(C)=O)[C@@H]1C [RIFAMPIN] | – | MIC [4]: > 25 µg/mL; MIC [5]: > 25 µg/mL; MIC [6]: 0.65 µg/mL (≈ 0.79 µM); MIC [7]: < 0.1 µg/mL
